Data as given in patent publication US9649306B2, “Treatment of diseases through administration of N-[5-(3,5-difluoro-benzyl)-1H-indazol-3-yl]-4-(4-methyl-piperazin-1-yl)-2-(tetrahydro-pyran-4-ylamino)-benzamide” (NERVIANO MEDICAL SCIENCES S.R.L., priority 2012, dated 2017).
Entries after “also recorded” stand apart in the source; their conditions may differ.

Experiment: Hygroscopicity test by Dynamic Vapour Sorption (DVS 1000, SMS)
Assay type: physicochemical
Details: for hygroscopicity (in words): DVS, 0-90% RH at 25° C.
Text: The observed water uptake was investigated by submitting a sample of such substances to a hygroscopicity test by means of a DVS 1000 (SMS). The apparatus is a “controlled atmosphere microbalance” where the weighed sample is exposed to programmed variations of the relative humidity (RH) at a constant and controlled temperature. The measured parameters (weight, time and RH), reported in Excel worksheets, allow obtaining hygroscopicity curves over the tested RH range. For example, sorption/desorption cycles between 0% and 90% RH can be performed at controlled temperature of 25° C. Progressive variations of RH can be, for example, of 10% and 3% and are operated by the software at the equilibration of the sample weight. This condition can be defined at a constant rate of percent weight variation such as, for example, 0.005%/min. FIG. 6 reports the DVS profiles of the amorphous form, crystalline form 1 and crystalline form 2 of the compound of formula (I). Relative Humidity (RH, %) values are reported on the x-axis while Change in Mass (%) is reported on the y axis. The curves are related to the sorption step between 0% RH and 90% RH at 25° C.

[1] = DVS sorption step, 25° C./90% RH

Row | water uptake [1] [%] | hygroscopicity (in words) | water uptake (DVS at 25° C., from RH values lower than 30% RH) | Structure (SMILES)
1 | 0.6 | low hygroscopicity |  | CN1CCN(c2ccc(C(=O)Nc3n[nH]c4ccc(Cc5cc(F)cc(F)c5)cc34)c(NC3CCOCC3)c2)CC1 [crystalline form 1, N-[5-(3,5-Difluoro-benzyl)-1H-indazol-3-yl]-4-(4-methyl-piperazin-1-yl)-2-(tetrahydro-pyran-4-ylamino)-benzamide]
2 | 0.2 | low hygroscopicity |  | CN1CCN(c2ccc(C(=O)Nc3n[nH]c4ccc(Cc5cc(F)cc(F)c5)cc34)c(NC3CCOCC3)c2)CC1 [crystalline form 2, N-[5-(3,5-Difluoro-benzyl)-1H-indazol-3-yl]-4-(4-methyl-piperazin-1-yl)-2-(tetrahydro-pyran-4-ylamino)-benzamide]

Row | Structure (SMILES) | water uptake [1] [%] | hygroscopicity (in words) | water uptake (DVS at 25° C., from RH values lower than 30% RH)
3 | CN1CCN(c2ccc(C(=O)Nc3n[nH]c4ccc(Cc5cc(F)cc(F)c5)cc34)c(NC3CCOCC3)c2)CC1 [amorphous form, N-[5-(3,5-Difluoro-benzyl)-1H-indazol-3-yl]-4-(4-methyl-piperazin-1-yl)-2-(tetrahydro-pyran-4-ylamino)-benzamide] | 2.5 | higher hygroscopicity than the crystalline forms 1 and 2; also recorded: hygroscopic solid | greater than 1%
